According to paper PMC11887051, “Discovery of ONO-2920632 (VU6011887): A Highly Selective and CNS Penetrant TREK-2 (TWIK-Related K+ Channel 2) Preferring Activator In Vivo Tool Compound” (ACS Chemical Neuroscience, 2025):
Values joined by “and” are separate entries in the source; they are usually repeats but may differ in a detail not shown here. Identical values can stand only once. “Also recorded” adds a separate entry of the source. Like-named read-outs stand apart in the source and are kept apart here. One block for each compound: values may come before it.

Assays:
[1] = mouse plasma protein binding; format: in vitro ADME; details: pH 7.4, read-out: mouse plasma fu
Method: In vitro Plasma protein binding and Brain homogenate binding: Determination of fraction unbound (f u) in plasma was conducted in vitro via equilibrium dialysis using HTDialysis (HTD) membrane plates. The top half of the plate was filled with 100 uL of Dubelco’s Phosphate Buffered Saline, pH 7.4 (DPBS). Compounds were diluted into plasma from each species (5 µM final concentration), which was aliquoted in triplicate to the ‘bottom half’ of the prepared HTD plate wells. The HTD plate was sealed and incubated for 6 hours at 37 °C. Following incubation, each well (both top and bottom halves) were transferred (20 µL) to the corresponding wells of a 96-shallow-well (V-bottom) plate. The daughter plates were then matrix-matched (DPBS side wells received equal volume of plasma, and plasma side wells received equal volume of DPBS), and extraction solution (120 µL; acetonitrile containing 50 nM carbamazepine as IS) was added to all wells of both daughter plates to precipitate protein and extract test article. The plates were then sealed and centrifuged (3500 rcf) for 10 minutes at ambient temperature. Supernatant (60 µL) from each well of the daughter plates was then transferred to the corresponding wells of new daughter plates (96-shallow-well, V bottom) containing water (Milli-Q, 60 µL/well), and the plates were sealed in preparation for LC-MS/MS analysis (see LC-MS/MS analysis method below).
The unbound fraction (f u) was calculated following the equation below, and mean values for each species were calculated from 3 replicates. […]
Fraction unbound for both plasma and brain samples was determined using Equation 4.
Equation 4 Determination of fraction unbound in plasma. […]

rat PK study = format: in vivo; details: plasma; for clearance: read-out: rat CLp; for Vd: read-out: rat Vss; for half-life: read-out: rat t1/2 (converted)
TASK-1 = assay: human 86Rb flux K2P selectivity panel; format: cell-based; details: 86Rb flux K2P panel
TASK-2 = assay: human 86Rb flux K2P selectivity panel; format: cell-based; details: 86Rb flux K2P panel
TASK-3 = assay: human 86Rb flux K2P selectivity panel; format: cell-based; details: 86Rb flux K2P panel
TRAAK = assay: human 86Rb flux K2P selectivity panel; format: cell-based; details: 86Rb flux K2P panel
TWIK-2 = assay: human 86Rb flux K2P selectivity panel; format: cell-based; details: 86Rb flux K2P panel
TRESK = target: T1, TRESK (Homo sapiens, UniProt Q7Z418); assay: human 86Rb flux K2P selectivity panel; format: cell-based; details: 86Rb flux K2P panel; for activity at TRESK: data is not shown
T1 sequence (Q7Z418 1-384): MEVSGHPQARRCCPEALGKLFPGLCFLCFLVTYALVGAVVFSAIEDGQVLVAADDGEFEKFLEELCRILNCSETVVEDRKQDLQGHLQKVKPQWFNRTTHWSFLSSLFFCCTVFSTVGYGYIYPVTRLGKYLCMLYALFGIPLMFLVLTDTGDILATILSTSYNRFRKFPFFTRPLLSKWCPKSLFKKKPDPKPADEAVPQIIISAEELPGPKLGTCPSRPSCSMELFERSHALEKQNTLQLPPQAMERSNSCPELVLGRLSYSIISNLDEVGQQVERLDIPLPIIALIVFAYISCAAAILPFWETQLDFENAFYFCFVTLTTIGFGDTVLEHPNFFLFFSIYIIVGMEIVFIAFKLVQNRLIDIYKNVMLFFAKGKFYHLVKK

Adenosine A2A = Adenosine A2A (Homo sapiens, UniProt P29274); assay: Eurofins Lead Profiling radioligand binding; details: title: 30 μM
Adenosine A2A, sequence (P29274 whole entry): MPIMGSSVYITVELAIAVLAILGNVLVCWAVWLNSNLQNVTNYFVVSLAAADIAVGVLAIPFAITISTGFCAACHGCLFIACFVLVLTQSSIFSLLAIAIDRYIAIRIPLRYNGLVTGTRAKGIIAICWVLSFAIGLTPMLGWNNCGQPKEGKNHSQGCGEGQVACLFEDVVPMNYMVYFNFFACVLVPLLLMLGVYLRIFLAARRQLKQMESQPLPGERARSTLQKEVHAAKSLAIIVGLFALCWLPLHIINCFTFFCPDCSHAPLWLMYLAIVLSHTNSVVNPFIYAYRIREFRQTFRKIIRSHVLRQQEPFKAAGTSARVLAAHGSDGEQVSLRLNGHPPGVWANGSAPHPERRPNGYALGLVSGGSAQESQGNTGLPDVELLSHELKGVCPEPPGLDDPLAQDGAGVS

Adrenergic α1A = Adrenergic α1A (Rattus norvegicus, UniProt P43140); assay: Eurofins Lead Profiling radioligand binding; details: title: 30 μM
Adrenergic α1A, sequence (P43140 whole entry): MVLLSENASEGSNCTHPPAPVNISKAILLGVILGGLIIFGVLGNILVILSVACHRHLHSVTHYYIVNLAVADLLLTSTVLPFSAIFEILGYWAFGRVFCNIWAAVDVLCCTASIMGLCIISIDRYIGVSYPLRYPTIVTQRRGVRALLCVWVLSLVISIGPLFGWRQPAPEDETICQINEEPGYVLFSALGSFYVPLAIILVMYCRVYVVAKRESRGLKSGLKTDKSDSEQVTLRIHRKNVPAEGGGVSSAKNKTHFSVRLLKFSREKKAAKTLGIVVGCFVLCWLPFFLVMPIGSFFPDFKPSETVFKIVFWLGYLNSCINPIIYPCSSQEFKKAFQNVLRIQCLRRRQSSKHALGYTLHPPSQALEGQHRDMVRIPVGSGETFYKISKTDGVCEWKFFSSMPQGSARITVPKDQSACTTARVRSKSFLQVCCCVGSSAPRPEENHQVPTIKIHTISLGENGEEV

Androgen (Testosterone) = Androgen (Testosterone) (Homo sapiens, UniProt P10275); assay: Eurofins Lead Profiling radioligand binding; details: title: 30 μM
Androgen (Testosterone), sequence (P10275 whole entry): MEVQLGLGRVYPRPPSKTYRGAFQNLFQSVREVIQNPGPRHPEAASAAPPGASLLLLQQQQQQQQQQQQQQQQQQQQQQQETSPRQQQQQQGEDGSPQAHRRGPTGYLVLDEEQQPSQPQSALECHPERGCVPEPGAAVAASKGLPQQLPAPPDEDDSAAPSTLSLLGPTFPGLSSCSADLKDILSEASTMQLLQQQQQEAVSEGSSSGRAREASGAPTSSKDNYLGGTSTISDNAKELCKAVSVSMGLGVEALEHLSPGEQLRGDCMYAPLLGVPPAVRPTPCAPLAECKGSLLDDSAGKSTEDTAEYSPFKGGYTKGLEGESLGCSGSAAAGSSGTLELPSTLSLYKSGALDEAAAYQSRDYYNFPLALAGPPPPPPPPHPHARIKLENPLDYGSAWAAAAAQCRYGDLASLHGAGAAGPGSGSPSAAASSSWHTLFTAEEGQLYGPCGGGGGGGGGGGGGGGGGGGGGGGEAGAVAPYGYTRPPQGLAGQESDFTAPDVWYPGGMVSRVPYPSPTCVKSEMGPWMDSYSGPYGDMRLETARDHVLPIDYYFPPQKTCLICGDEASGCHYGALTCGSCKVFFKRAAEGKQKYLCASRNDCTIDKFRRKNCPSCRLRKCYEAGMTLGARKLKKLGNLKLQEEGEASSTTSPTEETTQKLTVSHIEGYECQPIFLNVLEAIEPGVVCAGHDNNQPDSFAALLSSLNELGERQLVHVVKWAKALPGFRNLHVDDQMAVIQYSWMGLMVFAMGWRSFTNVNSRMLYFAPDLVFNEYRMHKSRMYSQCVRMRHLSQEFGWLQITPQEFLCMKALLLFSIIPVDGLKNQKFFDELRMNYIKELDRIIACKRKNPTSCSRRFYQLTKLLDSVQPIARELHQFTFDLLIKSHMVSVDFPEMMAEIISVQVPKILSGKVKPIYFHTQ

Bradykinin B1 = Bradykinin B1 (Homo sapiens, UniProt P46663); assay: Eurofins Lead Profiling radioligand binding; details: title: 30 μM
Bradykinin B1, sequence (P46663 whole entry): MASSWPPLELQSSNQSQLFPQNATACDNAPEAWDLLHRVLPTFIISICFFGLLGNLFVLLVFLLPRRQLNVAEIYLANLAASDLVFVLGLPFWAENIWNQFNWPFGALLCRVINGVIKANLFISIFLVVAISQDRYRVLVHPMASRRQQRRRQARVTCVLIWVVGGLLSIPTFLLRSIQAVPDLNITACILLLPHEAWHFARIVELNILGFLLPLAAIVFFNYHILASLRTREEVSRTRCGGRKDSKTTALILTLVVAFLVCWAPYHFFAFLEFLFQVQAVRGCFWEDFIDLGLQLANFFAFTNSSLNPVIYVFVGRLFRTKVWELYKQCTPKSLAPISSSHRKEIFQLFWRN

Cannabinoid CB1 = Cannabinoid CB1 (Homo sapiens, UniProt P21554); assay: Eurofins Lead Profiling radioligand binding; details: title: 30 μM
Cannabinoid CB1, sequence (P21554 whole entry): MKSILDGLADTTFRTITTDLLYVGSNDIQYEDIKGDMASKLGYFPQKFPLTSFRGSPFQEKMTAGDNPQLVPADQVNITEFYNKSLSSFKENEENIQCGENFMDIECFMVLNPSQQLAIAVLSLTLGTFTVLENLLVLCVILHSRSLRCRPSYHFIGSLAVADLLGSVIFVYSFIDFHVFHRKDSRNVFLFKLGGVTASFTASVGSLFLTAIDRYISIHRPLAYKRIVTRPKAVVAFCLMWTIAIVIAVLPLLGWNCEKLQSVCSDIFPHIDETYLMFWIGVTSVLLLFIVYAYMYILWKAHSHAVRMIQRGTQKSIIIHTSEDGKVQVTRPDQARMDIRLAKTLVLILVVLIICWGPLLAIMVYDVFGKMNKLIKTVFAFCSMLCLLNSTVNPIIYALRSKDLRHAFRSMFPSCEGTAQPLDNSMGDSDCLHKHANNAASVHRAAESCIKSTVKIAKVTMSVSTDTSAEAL

Dopamine D4.2 = Dopamine D4.2 (Homo sapiens, UniProt P21917, DEL265-296); assay: Eurofins Lead Profiling radioligand binding; details: title: 30 μM
Dopamine D4.2, sequence (P21917 with tags, fused parts or gaps DEL265-296): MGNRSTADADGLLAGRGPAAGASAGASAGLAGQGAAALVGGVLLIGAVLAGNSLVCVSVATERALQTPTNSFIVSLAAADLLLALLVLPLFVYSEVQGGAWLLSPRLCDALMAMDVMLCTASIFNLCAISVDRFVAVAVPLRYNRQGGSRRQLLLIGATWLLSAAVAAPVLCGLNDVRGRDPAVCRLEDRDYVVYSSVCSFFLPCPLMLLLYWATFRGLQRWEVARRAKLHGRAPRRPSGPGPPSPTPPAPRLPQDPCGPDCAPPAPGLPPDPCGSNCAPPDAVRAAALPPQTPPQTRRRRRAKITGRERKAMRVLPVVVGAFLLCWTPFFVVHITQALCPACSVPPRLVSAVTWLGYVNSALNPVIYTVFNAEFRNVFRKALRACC

[2] = tested on: Glutamate, NMDA, Phencyclidine; assay: Eurofins Lead Profiling radioligand binding; design: species or system Rat; details: title: 30 μM
Histamine H1 = Histamine H1 (Homo sapiens, UniProt P35367); assay: Eurofins Lead Profiling radioligand binding; details: title: 30 μM
Histamine H3 = Histamine H3 (Homo sapiens, UniProt Q9Y5N1); assay: Eurofins Lead Profiling radioligand binding; details: title: 30 μM
Histamine H3, sequence (Q9Y5N1 whole entry): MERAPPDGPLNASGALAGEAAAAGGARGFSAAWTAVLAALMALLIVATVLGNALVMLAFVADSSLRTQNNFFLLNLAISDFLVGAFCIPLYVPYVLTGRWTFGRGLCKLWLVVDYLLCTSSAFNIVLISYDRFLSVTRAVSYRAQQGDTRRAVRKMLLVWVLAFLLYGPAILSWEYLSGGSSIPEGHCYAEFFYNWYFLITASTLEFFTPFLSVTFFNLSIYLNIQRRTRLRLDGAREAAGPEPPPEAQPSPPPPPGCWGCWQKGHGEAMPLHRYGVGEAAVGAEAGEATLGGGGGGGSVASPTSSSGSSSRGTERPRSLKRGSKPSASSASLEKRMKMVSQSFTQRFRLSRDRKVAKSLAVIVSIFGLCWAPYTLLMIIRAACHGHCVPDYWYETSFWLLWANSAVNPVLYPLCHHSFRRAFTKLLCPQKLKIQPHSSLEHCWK

Interleukin IL-1 R1 = Interleukin IL-1 R1 (Mus musculus, UniProt P13504); assay: Eurofins Lead Profiling radioligand binding; details: title: 30 μM
Interleukin IL-1 R1, sequence (P13504 20-576): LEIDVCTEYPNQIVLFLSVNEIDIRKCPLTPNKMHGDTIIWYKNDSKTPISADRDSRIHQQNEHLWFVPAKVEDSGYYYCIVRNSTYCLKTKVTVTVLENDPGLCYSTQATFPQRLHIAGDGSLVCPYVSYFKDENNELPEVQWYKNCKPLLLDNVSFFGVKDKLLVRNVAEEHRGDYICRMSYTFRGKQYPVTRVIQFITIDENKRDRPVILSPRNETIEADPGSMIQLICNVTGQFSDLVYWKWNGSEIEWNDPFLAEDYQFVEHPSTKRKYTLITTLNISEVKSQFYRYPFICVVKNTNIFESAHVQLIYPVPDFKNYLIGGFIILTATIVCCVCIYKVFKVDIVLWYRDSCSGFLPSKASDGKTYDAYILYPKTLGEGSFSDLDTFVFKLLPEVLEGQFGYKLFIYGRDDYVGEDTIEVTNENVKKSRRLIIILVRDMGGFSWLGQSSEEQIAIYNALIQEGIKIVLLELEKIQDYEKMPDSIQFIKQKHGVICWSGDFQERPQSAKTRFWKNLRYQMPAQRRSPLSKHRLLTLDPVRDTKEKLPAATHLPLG

Potassium Channel [SKCA] = assay: Eurofins Lead Profiling radioligand binding; design: species or system Rat; details: title: 30 μM
[3] = tested on: Purinergic P2Y, Non-Selective; assay: Eurofins Lead Profiling radioligand binding; design: species or system Rat; details: title: 30 μM
Serotonin (5-HT3) = Serotonin (5-HT3) (Homo sapiens, UniProt P46098); assay: Eurofins Lead Profiling radioligand binding; details: title: 30 μM
Serotonin (5-HT3), sequence (P46098 24-478): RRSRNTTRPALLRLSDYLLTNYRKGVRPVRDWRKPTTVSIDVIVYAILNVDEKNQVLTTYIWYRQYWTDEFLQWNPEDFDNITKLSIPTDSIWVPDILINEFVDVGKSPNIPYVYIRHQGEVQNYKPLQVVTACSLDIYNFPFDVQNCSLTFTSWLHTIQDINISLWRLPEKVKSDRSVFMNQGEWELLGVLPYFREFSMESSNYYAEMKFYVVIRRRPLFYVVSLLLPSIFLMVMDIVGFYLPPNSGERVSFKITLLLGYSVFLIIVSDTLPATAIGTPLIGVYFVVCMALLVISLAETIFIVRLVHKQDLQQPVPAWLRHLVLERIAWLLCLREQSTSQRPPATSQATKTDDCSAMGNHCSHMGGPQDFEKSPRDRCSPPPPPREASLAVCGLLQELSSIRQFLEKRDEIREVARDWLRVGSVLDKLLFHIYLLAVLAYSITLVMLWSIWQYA

Sigma σ1 = Sigma σ1 (Homo sapiens, UniProt Q99720); assay: Eurofins Lead Profiling radioligand binding; details: title: 30 μM
Sigma σ1, sequence (Q99720 whole entry): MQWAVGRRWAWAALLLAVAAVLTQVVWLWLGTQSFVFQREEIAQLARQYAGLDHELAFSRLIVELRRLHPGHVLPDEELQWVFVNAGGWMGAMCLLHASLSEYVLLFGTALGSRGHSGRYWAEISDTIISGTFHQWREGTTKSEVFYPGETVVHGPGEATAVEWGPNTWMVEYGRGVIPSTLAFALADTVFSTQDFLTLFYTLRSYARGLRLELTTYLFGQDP

Sodium Channel, Site 2 = assay: Eurofins Lead Profiling radioligand binding; design: species or system Rat; details: title: 30 μM
[4] = target: Transporter, Dopamine (DAT) (Homo sapiens, UniProt Q01959); assay: Eurofins Lead Profiling radioligand binding; details: title: 30 μM
TREK-1 = target: T2, TREK-1 (Homo sapiens, UniProt O95069); assay: manual patch clamp (MPC) assay, TREK-1, species not stated; format: cell-based
T2 sequence (O95069 1-426): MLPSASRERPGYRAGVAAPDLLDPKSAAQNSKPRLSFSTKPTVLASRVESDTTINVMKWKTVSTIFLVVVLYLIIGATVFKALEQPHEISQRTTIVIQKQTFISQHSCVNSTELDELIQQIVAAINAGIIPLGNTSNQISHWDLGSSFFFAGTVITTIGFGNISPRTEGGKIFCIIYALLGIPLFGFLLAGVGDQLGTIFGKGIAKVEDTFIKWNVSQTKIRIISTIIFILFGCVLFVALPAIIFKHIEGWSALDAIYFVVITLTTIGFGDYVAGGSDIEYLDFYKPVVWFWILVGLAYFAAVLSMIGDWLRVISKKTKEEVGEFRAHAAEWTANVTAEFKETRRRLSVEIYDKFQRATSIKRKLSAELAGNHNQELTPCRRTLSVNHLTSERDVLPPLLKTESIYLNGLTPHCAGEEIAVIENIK

[5] = Sprague-Dawley, intravenous, rat cassette PK study

fraction unbound at 6 h, 5 µM [1]: 0.022 | clearance (rat PK study; [5]): 20.5 mL/min/kg | Vd (rat PK study; [5]): 1.5 L/kg | half-life (rat PK study; [5]): 66 min
Compound: O=C(NCc1ccc(Br)cc1Cl)c1ccc(-c2ncn[nH]2)cc1 [Compound 14a]

Compound: O=C(NCc1ccc(OC(F)(F)F)cc1F)c1ccc2ncnn2c1 [Compound 19b]
fraction unbound at 6 h, 5 µM [1]: 0.24 | selectivity against TASK-1 over TREK-2 (TASK-1): > 150 fold | selectivity against TASK-2 over TREK-2 (TASK-2): > 150 fold | selectivity against TASK-3 over TREK-2 (TASK-3): > 150 fold | selectivity against TRAAK over TREK-2 (TRAAK): > 150 fold | selectivity against TWIK-2 over TREK-2 (TWIK-2): > 150 fold | selectivity against TRESK over TREK-2 (TRESK): 31 fold | activity at TRESK (TRESK): micromolar inhibitor activity | inhibition (Adenosine A2A): 10% | inhibition (Adrenergic α1A): 2% | inhibition (Androgen (Testosterone)): 18% | inhibition (Bradykinin B1): -12% | inhibition (Cannabinoid CB1): 17% | inhibition (Dopamine D4.2): 15% | % Inhibition at 10 µM [2]: 0% | inhibition (Histamine H1): 8% | inhibition (Histamine H3): 1% | inhibition (Interleukin IL-1 R1): 9% | % Inhibition at 10 µM (Potassium Channel [SKCA]): 4% | % Inhibition at 10 µM [3]: -7% | inhibition (Serotonin (5-HT3)): 4% | inhibition (Sigma σ1): 45% | % Inhibition at 10 µM (Sodium Channel, Site 2): 15% | inhibition [4]: 14%

EC50 (TREK-1): 7.4 µM | Emax (TREK-1): 99% | clearance (rat PK study; rat PK profile): 3.5 mL/min/kg | Vd (rat PK study; rat PK profile): 0.787 L/kg | half-life (rat PK study; rat PK profile): 180 min
Compound: CS(=O)(=O)Nc1ccc(C(=O)NCc2ccc(Cl)cc2Cl)cc1 [Compound 13]

fraction unbound at 6 h, 5 µM [1]: 0.1
Compound: Cc1cc(OC(F)(F)F)ccc1CNC(=O)c1ccc2ncnn2c1 [Compound 19a]

Compound: O=C(NCc1ccc(OC(F)(F)F)cc1Cl)c1ccc2nncn2c1 [Compound 20]
selectivity against TASK-1 over TREK-1/2 (TASK-1): > 91 fold and > 85 fold | selectivity against TASK-2 over TREK-1/2 (TASK-2): > 91 fold and > 85 fold | selectivity against TASK-3 over TREK-1/2 (TASK-3): > 91 fold and > 85 fold | selectivity against TRAAK over TREK-1 (TRAAK): 85 fold and > 85 fold | selectivity against TWIK-2 over TREK-1/2 (TWIK-2): > 91 fold and > 85 fold | activity at TRESK (TRESK): micromolar inhibitor activity; also recorded: micromolar inhibitory activity
